We go through five substances from patent publication US20120129919A1, “POLYCATIONIC AMPHIPHILIC CYCLOOLIGOSACCHARIDES AND THE USE THEREOF AS MOLECULAR TRANSPORTERS” (priority 2009, published 2012).

One assay relates to CHO-k1 cells. Briefly: In vitro gene transfection of pEGFP-N3 complexes, GFP fluorescence. The format is cell-based, Chinese hamster. The note with it: pEGFP-N3 plasmid, N/P ratios between 0.1 and 20, FIG. 5. The procedure:
Ovarian cells of wild-type Chinese hamsters (CHO-k1; no. ATCC CCL-61) were cultured in Dulbecco's modified Eagle's medium (DMEM) supplemented with 10% (v/v) of foetal bovine serum, 2 mM glutamine plus, 100 U/ml of penicillin and […] of streptomycin. Prior to the transfection, the cells were seeded in 24 well plates and incubated for 24 h, to reach an 80%-90% cell confluence. For the transfection experiments, plasmid pEGFP-N3 (1 μg) was mixed with the corresponding CD derivative at N/P ratios ranging between 0.1 and 20, at room temperature for 20 minutes, in a final volume of 20 μl. The mixture was diluted to 0.5 ml with DMEM without serum and added to each well. The untransfected cells and the naked pEGFP-N3 were used as negative controls. As a positive control, a transfection experiment was performed using 1 μl of Lipofectamine™ 2000 (Invitrogen) and 1.0 μg of DNA, following the manufacturer's instructions. The cells were incubated with the DNA-polycationic amphiphilic βCD mixtures for 18 h; subsequently, the transfection medium was eliminated and the cells were further cultured in DMEM medium plus 10% FBS for an additional 48-h period.
The transfected cells were washed three times with PBS and 600 μl of 0.5% triton X-100 in PBS. The plates were stirred for 10 min at room temperature, the lysate was recovered and the fluorescence was quantified in a Shimadzu RF-5301PC fluorimeter with an excitation wavelength of 460 nm (5 nm) and an emission wavelength of 510 nm (10 nm). The protein concentration was measured using the Bio-Rad protein assay (Hercules, Calif., USA).

In assay [1] the test system is DNA of pEGFP-N3 (DNase I digestion). Briefly: DNase protection assay of pDNA complexes. The note with it: for protection of pDNA against degradation by DNase: pEGFP-N3 complexes, N/P=5, DNase I 45 minutes at 37° C., FIG. 4. How it is done:
The DNA of pEGFP-N3 (10 μl at 0.1 μg/μl) was mixed with an equal volume of stock solution of βCD derivative using N/P=5, and incubated for 30 min at room temperature. 15 μl of a DNase I solution (0.1 mg/ml in 50 mM Tris-HCl, pH 8, 2000 U/mg) were added to the mixture and it was incubated for 45 minutes at 37° C. Following the digestion, 20 μl of a 10% SDS solution were added and the samples were incubated for 2 h at 85° C. Finally, one aliquot (20 μl) of each sample was subjected to agarose gel electrophoresis (0.8% w/v) in TAE buffer.

Another assay has as its system DNA of pEGFP-N3. Briefly: Gel electrophoresis shift assay (binding/complexation of pDNA). The following applies: pEGFP-N3 plasmid, N/P ratios between 0 and 10, FIG. 3. The procedure: Plasmid pEGFP-N3, used for the preparation of the DNA complexes and the transfection assay, is a 4729-bp (base pairs) plasmid. The quantities of polycationic amphiphilic βCD derivatives used were calculated on the basis of the desired DNA concentration, 0.02 mg/ml (50 μM phosphate), the N/P ratio, the molecular weight and the number of positive charges in the selected CD derivative. The experiments were performed for N/P 5, 10, 30 and 50. The DNA was diluted in milli-Q water to a final phosphate concentration of 50 μM; subsequently, the desired quantity of CD derivative was added from a 20-mg/ml solution (1:2 of Me2SO-water). The preparation was stirred with a vortex for a few seconds and incubated for 30 minutes.
The binding capacity of the polycationic amphiphilic DNA-βCD complex was analysed by gel electrophoresis. The stock solutions of βCD derivatives were prepared in 1:2 Me2SO-water, and the DNA was dissolved in 150 mM NaCl. The DNA of pEGFP-N3 (10 μl at 0.1 μg/μl) was mixed with an equal volume of βCD derivative using N/P ratios ranging between 0 and 10, and incubated for 30 min at room temperature prior to the addition of loading buffer (2 μl). One aliquot (5 μl) of each sample was subjected to agarose gel electrophoresis (0.8% w/v) in TAE buffer (40 mM Tris-acetate, 1 mM EDTA). The electrophoresis was performed at 7 V/cm and the gels were stained with ethidium bromide following the electrophoresis. The quantification of the intensity of the bands was performed with the NIH Image software (Rasband et al. 1995. Microbeam Analysis Soc. J. 4, 137-149). A value of 100 was assigned to the intensity of the band for naked DNA.

For “Heptakis[6(2-(4-(2,2-diaminoethylaminomethyl)-1H-1,2,3-triazole-1-yl)acetamidoethylthio)-6-deoxy-2,3-di-O-hexanoyl]cyclomaltoheptaose [Compound 17]”, the transfection efficiency result with CHO-k1 cells is “the rigid motif was more advantageous than the flexible architecture”. In assay [1], the “protection of pDNA against degradation by DNase” value (“protection of pDNA … by DNase” for short) was “the rigid motif was more advantageous than the flexible architecture”. In addition, the “complexation capacity / compaction of pDNA, stability of the CD:pDNA complex” value (from here on “complexation capacity / compaction”) with DNA of pEGFP-N3 is given as “the rigid motif was more advantageous than the flexible architecture”.
For “Heptakis[6(2-(4-aminomethyl-1H-1,2,3-triazole-1-yl)acetamidoethylthio)-6-deoxy-2,3-di-O-hexanoyl]cyclomaltoheptaose [Compound 16]”, the transfection efficiency result in the assay with CHO-k1 cells was “moderate increases”. Also, the “protection of pDNA … by DNase” value in assay [1] is given as “moderate increases”. For the same substance, the “complexation capacity / compaction” value in the assay on DNA of pEGFP-N3 is “moderate increases”.
Regarding “Heptakis[6-(4-(2,2-diaminoethyl)aminomethyl)-1H-1,2,3-triazole-1-yl)-6-deoxy-2,3-di-O-myristoyl]cyclomaltoheptaose [Compound 11]”, the transfection efficiency result with CHO-k1 cells is “drastically reduced the transfection capacity”. Moreover, the “complexation capacity / compaction” value in the assay on DNA of pEGFP-N3 is “did not modify the complexation efficiency”.
As for “Heptakis[6-(4-(2,2-diaminoethylaminomethyl)-1H-1,2,3-triazole-1-yl)-6-deoxy-2,3-di-O-hexanoyl]cyclomaltoheptaose tetradecahydrochloride [Compound 10]”, in the assay with CHO-k1 cells, the transfection efficiency result is “surprisingly high transfection efficiencies, analogous to those obtained using Lipofectamine™ 2000”. Moreover, the “protection of pDNA against the environment” value in assay [1] (10:pDNA complexes, N/P values greater than 4) is “complete protection”. Also, the “complexation capacity / compaction” value in the assay with DNA of pEGFP-N3 is “stable 10:pDNA complexes”.
For the substance “Heptakis[6-(4-aminomethyl-1H-1,2,3-triazole-1-yl)-6-deoxy-2,3-di-O-hexanoyl]cyclomaltoheptaose heptahydrochloride [Compound 9]”, the transfection efficiency result with CHO-k1 cells was “transfection levels remained very low”. Besides, the “protection of pDNA … by DNase” value in assay [1] is listed as “plasmid still remains accessible to DNase”. Moreover, the “complexation capacity / compaction” value in the assay with DNA of pEGFP-N3 is “improved complexation capacities of pDNA as compared to non-amphiphilic analogue 18”.
